# Measured values taken from PMC10689823, “Discovery of a Drug-like, Natural Product-Inspired DCAF11 Ligand Chemotype” (Nature Communications, 2023).
# Values joined by “and” are separate entries in the source; they are usually repeats but may differ in a detail not shown here. Identical values can stand only once.
# Key:
# Type in all cases: cell-based
# BLK = biological target: T1, BLK (Homo sapiens, UniProt P51451); test: BLK levels by Western blot in Ramos cells
# T1 construct: endogenous in cells; host or cells: Ramos
# Method: (§1) Cells were washed with PBS and lysed in lysis buffer (50 mM Tris-HCl, pH 7.4, 150 mM NaCl, 1% Triton X-100, 1% sodium deoxycholate, 0.1% SDS) with complete protease inhibitor cocktail (Roche, 11836170001) for 30 min on ice. For Ramos cells, cell pellets were lysed in lysis buffer (50 mM Tris-HCl, pH 8, 150 mM NaCl, 1% NP-40, 0.5% sodium deoxycholate) with complete protease inhibitor cocktail. After centrifugation at 16,000 x g, the supernatant was transferred into a new tube and the protein concentration was determined by DC protein assay (BIO-RAD, 5000116). Proteins were separated by SDS-PAGE and transferred to a PVDF membrane (Thermo scientific, 0.45 μm, 88518). For PDEδ, BRD2, GAPDH, BRD4, Vinculin and BTK, the membranes were blocked with Intercept® Blocking Buffer (LI-COR Biosciences, 927-70001) at room temperature for 1 h. The primary antibodies for these proteins were diluted with Intercept® Blocking Buffer (1:500 for PDEδ, 1:3000 for Vinculin, and 1:1000 for other proteins) and incubated with the membranes overnight at 4 °C. Membranes were washed with PBS + 0.1% Tween 20 (PBS-T) five times and incubated with secondary antibodies conjugated to IRDye® Infrared Fluorescent Dyes (1:5000, LI-COR Biosciences) at room temperature for 1 h with protection from light. After washing the membrane, signals were visualized using the ChemiDoc MP Imaging System (BIO-RAD Laboratories). For detection of LC3B, BRD3, BLK, DCAF11, DDB1 RBX1, FIP200, V5- and FLAG-Tag the membranes were blocked with 5% milk in PBS-T at room temperature for 1 h. The primary antibodies for these proteins were diluted in 5% milk in PBS-T buffer (1:200 for BRD3, 1:1000 for other proteins) and incubated with the membranes overnight at 4 °C. Membranes were washed with PBS-T five times and incubated with HRP secondary antibodies (1:1500) at room temperature for 1 h. After washing the membrane, protein detection was performed using Western blotting detection reagent (Thermo Scientific, 34095) and the ChemiDoc MP Imaging System (BIO-RAD). Relative band intensities were quantified using Image Lab (BIO-RAD).
# BTK = biological target: T2, BTK (Homo sapiens, UniProt Q06187); test: BTK levels by Western blot in Ramos cells; conditions: 6 h
# T2 construct: endogenous in cells; host or cells: Ramos
# Method: as §1, with “After washing the membrane, signals were visualized using the ChemiDoc MP Imaging System (BIO-RAD Laboratories). For detection of LC3B, BRD3, BLK, DCAF11, DDB1 RBX1, FIP200, V5- and FLAG-Tag the membranes were blocked with 5% milk in PBS-T at room temperature for 1 h. The primary antibodies for these proteins were diluted in 5% milk in PBS-T buffer (1:200 for BRD3, 1:1000 for other proteins) and incubated with the membranes overnight at 4 °C. Membranes were washed with PBS-T five times and incubated with HRP secondary antibodies (1:1500) at room temperature for 1 h. After washing the membrane, protein detection was performed using Western blotting detection reagent (Thermo Scientific, 34095) and the ChemiDoc MP Imaging System (BIO-RAD).” left out
# [1] = Cell viability assay (CellTiter-Glo) in Jurkat cells; conditions: human, Jurkat cells
# Method: (§2) Jurkat cells (3 × 10^3) and Hep G2 cells (3.5 × 10^3) were seeded in 96-well plates in 100 μL culture medium. Cells were treated with compounds dissolved in 50 μl medium at the indicated concentration for 72 h, at the same time, one plate of cells without compounds treatment was used for the cell count at time zero. After adding 40 μl of CellTiter-Glo® reagent (Promega, G7571) to each well for 10 min at room temperature, the luminescence was measured on a Spark® Multimode Microplate Reader (Tecan). The data was analyzed by the GraphPad Prism 9.0.
# Jurkat cells = test: as above; conditions: for Relative cell viability (%): Fig. 4k; for Cell viability (%) relative to DMSO: individual replicates, Supplementary Fig. 7g
# Method: as §2
# Hep G2 cells = test: Cell viability assay (CellTiter-Glo) in Hep G2 cells; conditions: Homo sapiens, HepG2, 72 h
# Method: as §2
# BRD2 = BRD2 (Homo sapiens, UniProt P25440); test: BRD2 levels by Western blot in Hep G2 and MDA-MB-231 cells (incl. RNA interference); set-up: endogenous in cells; host or cells: Hep G2; MDA-MB-231; conditions: Hep G2 cells; 30 μM 15 for 1 h, then 10 μM 9 for 4 h
# Method: as §1
# T1 sequence (P51451 whole entry): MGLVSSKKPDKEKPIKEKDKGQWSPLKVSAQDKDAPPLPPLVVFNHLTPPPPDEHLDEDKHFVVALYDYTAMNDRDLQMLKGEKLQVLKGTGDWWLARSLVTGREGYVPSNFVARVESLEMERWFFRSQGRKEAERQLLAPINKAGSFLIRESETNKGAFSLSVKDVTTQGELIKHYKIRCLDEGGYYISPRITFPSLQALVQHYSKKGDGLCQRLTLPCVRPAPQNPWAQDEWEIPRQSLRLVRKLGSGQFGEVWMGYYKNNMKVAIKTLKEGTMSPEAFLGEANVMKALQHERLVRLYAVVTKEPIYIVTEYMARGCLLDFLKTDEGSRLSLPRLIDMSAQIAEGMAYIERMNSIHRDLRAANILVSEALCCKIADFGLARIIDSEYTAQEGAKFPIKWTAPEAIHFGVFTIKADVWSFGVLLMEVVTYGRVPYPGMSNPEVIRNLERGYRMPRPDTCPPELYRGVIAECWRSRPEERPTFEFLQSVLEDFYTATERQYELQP
# T2 sequence (Q06187 whole entry): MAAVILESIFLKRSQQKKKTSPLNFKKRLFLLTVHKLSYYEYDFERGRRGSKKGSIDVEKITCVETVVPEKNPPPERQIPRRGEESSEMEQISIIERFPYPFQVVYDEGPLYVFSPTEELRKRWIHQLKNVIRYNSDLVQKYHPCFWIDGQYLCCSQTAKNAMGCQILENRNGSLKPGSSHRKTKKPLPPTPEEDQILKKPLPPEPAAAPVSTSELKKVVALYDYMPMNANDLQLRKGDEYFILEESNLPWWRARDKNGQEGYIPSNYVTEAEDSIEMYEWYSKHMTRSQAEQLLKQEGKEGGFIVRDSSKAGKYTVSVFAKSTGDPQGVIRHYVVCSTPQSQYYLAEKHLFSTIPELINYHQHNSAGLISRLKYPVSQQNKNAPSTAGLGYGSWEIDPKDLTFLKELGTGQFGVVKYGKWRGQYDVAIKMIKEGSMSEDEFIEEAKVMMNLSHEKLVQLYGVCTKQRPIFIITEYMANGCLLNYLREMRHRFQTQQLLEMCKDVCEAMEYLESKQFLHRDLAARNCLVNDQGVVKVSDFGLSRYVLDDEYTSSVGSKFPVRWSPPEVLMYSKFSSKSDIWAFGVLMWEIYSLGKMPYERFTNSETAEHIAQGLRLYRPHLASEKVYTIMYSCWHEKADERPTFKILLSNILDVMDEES
# Chain of BRD2 (P25440 whole entry): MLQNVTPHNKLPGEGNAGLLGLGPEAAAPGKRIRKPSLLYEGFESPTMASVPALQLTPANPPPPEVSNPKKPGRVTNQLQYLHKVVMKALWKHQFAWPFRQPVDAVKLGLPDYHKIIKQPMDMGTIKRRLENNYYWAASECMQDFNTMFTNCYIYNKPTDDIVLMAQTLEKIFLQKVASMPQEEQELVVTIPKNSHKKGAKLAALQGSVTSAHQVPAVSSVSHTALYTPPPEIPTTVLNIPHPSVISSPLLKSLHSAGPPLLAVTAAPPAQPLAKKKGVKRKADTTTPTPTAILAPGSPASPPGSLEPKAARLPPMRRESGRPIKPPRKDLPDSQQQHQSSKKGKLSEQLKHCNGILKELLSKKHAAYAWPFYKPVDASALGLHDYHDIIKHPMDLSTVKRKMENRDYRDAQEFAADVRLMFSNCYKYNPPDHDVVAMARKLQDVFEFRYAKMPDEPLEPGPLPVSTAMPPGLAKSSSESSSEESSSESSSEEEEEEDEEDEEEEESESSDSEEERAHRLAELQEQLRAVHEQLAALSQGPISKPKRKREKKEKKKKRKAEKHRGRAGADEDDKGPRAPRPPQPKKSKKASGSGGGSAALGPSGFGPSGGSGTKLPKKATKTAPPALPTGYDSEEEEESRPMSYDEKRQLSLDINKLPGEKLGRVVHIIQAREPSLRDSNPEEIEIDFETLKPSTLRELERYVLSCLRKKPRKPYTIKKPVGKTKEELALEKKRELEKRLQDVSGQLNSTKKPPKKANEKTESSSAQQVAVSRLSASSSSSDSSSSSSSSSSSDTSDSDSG
compound,measurement,setting,value
Nc1ncnc2c1c(-c1ccc(Oc3ccccc3)cc1)nn2C1CCN(CC(=O)NCCOCCOCCOCCOCCNC(=O)COc2c(Br)cc(/C=C3\C(=O)Nc4ccc(Br)cc43)cc2Br)CC1 [Compound 13],BLK/Vinculin intensity (relative to DMSO control group),"BLK; 3 μM, 6 h, Fig. 2g",37.145 and 35.6045 and 46.4487
same,BLK/Vinculin intensity (relative to DMSO control group),"BLK; 10 μM, 6 h, Fig. 2g",21.4399 and 23.7367 and 36.6727
same,BLK/Vinculin intensity (relative to DMSO control group),"BLK; 30 μM, 6 h, Fig. 2g",37.0963 and 39.3424 and 67.6199
same,reduction of BLK levels,"BLK; Ramos cells, 6 h",70%
same,BLK/Vinculin intensity (relative to DMSO control group),"BLK; Ramos cells, pretreated CFZ 1 μM 40 min, then 10 μM, 6h, Fig. 2h",73.6122 and 85.1867 and 106.763
same,BLK/Vinculin intensity (relative to DMSO control group),"BLK; Ramos cells, pretreated CQ 50 μM 40 min, then 10 μM, 6h, Fig. 2h",24.1946 and 36.2698 and 40.4347
same,BLK/Vinculin intensity (relative to DMSO control group),"BLK; Ramos cells, pretreated MLN4924 1 μM 40 min, then 10 μM, 6h, Fig. 2h",110.614 and 82.1333 and 144.155
same,reduction of BTK levels,BTK,50%
"COCCCN(C(=O)CCl)C(C(=O)NCc1ccccc1)c1ccc(Cl)c(Cl)c1 (stereo not shown) [Compound 15, reference compound]","viability at 72 h, 10 nmol/L","[1]; concentration 10 nmol/L, individual replicates, Supplementary Fig. 7g, read-out: Cell viability (%) relative to DMSO",90.9%
same,"viability at 72 h, 30 nmol/L","[1]; concentration 30 nmol/L, individual replicates, Supplementary Fig. 7g, read-out: Cell viability (%) relative to DMSO",89%
same,"viability at 72 h, 0.01 µM","[1]; 72 h, 10 nM, Fig. 4k, read-out: Relative cell viability (%)",98.2%
same,"viability at 72 h, 0.03 µM","[1]; 72 h, 30 nM, Fig. 4k, read-out: Relative cell viability (%)",95.3%
same,"viability at 72 h, 0.1 µM","[1]; 72 h, 100 nM, Fig. 4k, read-out: Relative cell viability (%)",97.5%
same,"viability at 72 h, 0.3 µM","[1]; 72 h, 300 nM, Fig. 4k, read-out: Relative cell viability (%)",89.8%
same,"viability at 72 h, 1 µM","[1]; 72 h, 1000 nM, Fig. 4k, read-out: Relative cell viability (%)",69.4%
same,GI50,"Jurkat cells; Homo sapiens, Jurkat cells, 72 h",1700 ± 200 nM
same,Relative cell viability (%),"Jurkat cells; Jurkat cells, 72 h, 10 nM, 0.01 µM",107.976% and 98.062%
same,Relative cell viability (%),"Jurkat cells; Jurkat cells, 72 h, 30 nM, 0.03 µM",111.548% and 108.416%
same,Relative cell viability (%),"Jurkat cells; Jurkat cells, 72 h, 100 nM, 0.1 µM",104.746% and 97.0657%
same,Relative cell viability (%),"Jurkat cells; Jurkat cells, 72 h, 300 nM, 0.3 µM",101.886% and 95.5624%
same,Relative cell viability (%),"Jurkat cells; Jurkat cells, 72 h, 1000 nM, 1 µM",76.2485% and 79.6366%
same,Relative cell viability (%),"Jurkat cells; Jurkat cells, 72 h, 3000 nM, 3 µM",-0.04609% and 0.01061% and 0.06492%
same,Relative cell viability (%),"Jurkat cells; Jurkat cells, 72 h, 10000 nM, 10 µM",-0.2034% and -0.1473% and -0.1406%
same,Relative cell viability (%),"Jurkat cells; Jurkat cells, 72 h, 30000 nM, 30 µM",-0.2515% and -0.2135% and -0.2133%
same,Cell viability (%) relative to DMSO,Jurkat cells; concentration 10 nmol/L,93.1923% and 103.02%
same,Cell viability (%) relative to DMSO,Jurkat cells; concentration 30 nmol/L,89.995% and 103.027%
same,Cell viability (%) relative to DMSO,Jurkat cells; concentration 100 nmol/L,81.9055% and 90.259% and 101.913%
same,Cell viability (%) relative to DMSO,Jurkat cells; concentration 300 nmol/L,82.6491% and 87.803% and 104.249%
same,Cell viability (%) relative to DMSO,Jurkat cells; concentration 1000 nmol/L,80.0935% and 85.5797% and 108.086%
same,Cell viability (%) relative to DMSO,Jurkat cells; concentration 3000 nmol/L,49.5057% and 68.1876% and 85.0918%
same,Cell viability (%) relative to DMSO,Jurkat cells; concentration 10000 nmol/L,0.002496% and -0.07521% and -0.05875%
same,Cell viability (%) relative to DMSO,Jurkat cells; concentration 30000 nmol/L,-0.1172% and -0.221% and -0.2298%
same,GI50,Hep G2 cells,6.5 ± 1.8 µM
same,effect of pretreatment on BRD2 degradation by 9,BRD2,impaired the degradation of BRD2
